Source: patent publication US5939403A, “Keratan sulfate oligosaccharide fraction and pharmaceutical containing the same” (Seikagaku Corporation, priority 1994, dated 1999)
Counter-ions that a name gives are not always drawn.

How the values were obtained:
[1] = system: neutrophile of guinea pig; assay: Inhibition of active oxygen (O2^-) generation in FMLP-stimulated neutrophile; assay type: cell-based, female Hartley guinea pigs
Experimental: To female Hartley guinea pigs of five weeks old (purchased from Japan SLC), 20 ml of the 0.2% aqueous solution of glycogen (Type II; Oyster; Sigma) dissolved in saline which was previously sterilized with autoclave, was intraperitoneally administered. The guinea pigs were sacrificed by bleeding 16 hours after the administration, and 20 ml of the saline containing heparin at a concentration of 10 U/ml was intraperitoneally injected to recover the peritoneal exudate. Hereinafter all the operations were carried out under ice-water cooling condition except for incubation. The recovered exudate was centrifuged at 1,000 rpm for 10 minutes, the precipitate obtained was hemolyzed with purified water for 30 seconds, and returned into isotonicity with the Hanks' solution at double the concentration (not containing phenol red; Nissui Seiyaku), and further it was centrifuged at 1,000 rpm for 10 minutes. The precipitate obtained was suspended in the Hanks' solution and centrifuged and the operations were repeated once more to give the neutrophile.
The collected neutrophile of the guinea pigs was suspended in the Hanks' solution, the number of leukocyte in the suspension was determined by a cytometer (System K-2000; Toa Iyo Denshi Co.), and the suspension diluted with the Hanks' solution to 2×10^6 cells/ml was used in the determination as the cell suspension. After mixing 1 ml of the cell suspension and 10 μl of the purified keratan sulfate oligosaccharide (keratan sulfate tetrasaccharide (I), the keratan sulfate pentasaccharide (II), or the keratan sulfate disaccharide (III)) prepared in Example 1 described above, and the mixture was preincubated at 37° C. for an hour. […]
The supernatant obtained by the centrifugation was separated and the absorbance thereof was determined at 550 nm to estimate the quantity of reducing cytochrome c per 2×10^6 cells after the 10 minutes incubation. The quantity of reducing cytochrome c increases with the generation of active oxygen (O2^-). […]

papain-induced arthritis = assay: Papain-induced unilateral arthritis model, intramuscular administration (volume of synovial fluid); assay type: in vivo, Japanese white rabbits (female); settings: for quantity of synovial fluid (FIG. 5, result in words): 10 rabbits per group; for Volume of Synovial Fluid: 7 days, control 722, normal 433
Experimental: The anti-inflammatory effect of the keratan sulfate oligosaccharide with rabbits of the papain-induced arthritis model was examined using the volume of synovial fluid as an indication.
Seven days after the injection, the blood was drawn from the auricular artery, and plasma containing heparin was separated. After drawing the blood, the rabbits were anatomized and the both knee joint were separated. The articular cavity was washed with 2 ml of saline three times to recover the synovial fluid. The calcium concentrations in the plasma and the recovered synovial fluid were determined, and the volume of synovial fluid was calculated from the following formula.
Volume of Synovial Fluid (ul/articulation)=Amount of Calcium in Recovered
Synovial Fluid (μg/articulation)/Concentration of Calcium in Plasma
Into the articular cavity of left joint of Japanese white rabbits (female) of 3 kg weight, 150 μl of the saline solution of papain (1%) was injected, and the right joint was not treated to prepare the unilateral arthritis model. One day after injecting papain, 150 μl of the PBS solution of the purified keratan sulfate tetrasaccharide (I) (2%, 1%, and 0.5% solution; 1.0 mg/kg, 0.5 mg/kg, and 0.25 mg/kg, respectively) which was prepared in Example 1 was injected into the hip muscle of the left side (hereinafter referred to as "the keratan sulfate tetrasaccharide (I) administered group"). As the control, 150 μl of PBS was injected to the arthritis model instead of the PBS solution of the keratan sulfate tetrasaccharide (I) and hereinafter these rabbits are referred to as "the control group". And the normal rabbits not subjected to the papain injection (hereinafter referred to as "the normal group") were also examined in the same manner hereinafter. Seven days after the injection, the volume of synovial fluid was calculated in the same manner as in (1-1).
The examination was performed in the same manner as in (1-3) except for using 150 μl of the PBS solution of the purified keratan sulfate tetrasaccharide (I), the keratan sulfate pentasaccharide (II), and the keratan sulfate disaccharide (III) (1% solution; 0.5 mg/kg) which were prepared in Example 1. In the figure, *, **, and *** represent that they have the significant difference with p<0.05, p<0.01, and p<0.001, respectively. And in each group, 10 rabbits were used for the examination.

[2] = 0.5 mg/kg intramuscular, unilateral model

Row | Compound | inhibitory function for generation of active oxygen (O2^-) (FIG. 10) [1] | quantity of synovial fluid (FIG. 5, result in words) (papain-induced arthritis; [2]) | inhibition of generation of active oxygen (O2^-) (FIG. 10) ([1]; 0.01, 0.1 and 1.0 mg/ml) | Volume of Synovial Fluid (papain-induced arthritis; 0.25 mg/kg intramuscular, n = 9, SD 70.6, p < 0.05) [µL] | Volume of Synovial Fluid (papain-induced arthritis; 0.5 mg/kg intramuscular, n = 10, SD 68.9, p < 0.01) [µL] | Volume of Synovial Fluid (papain-induced arthritis; 1.0 mg/kg intramuscular, n = 9, SD 53.1, p < 0.01) [µL] | volume of synovial fluid (result in words) (papain-induced arthritis; 0.25, 0.5, 1.0 mg/kg intramuscular, unilateral model)
1 | CC(=O)N[C@H]1C(O)O[C@H](COS(=O)(=O)O)[C@@H](O[C@@H]2O[C@H](COS(=O)(=O)O)[C@H](O)[C@H](O)[C@H]2O)[C@@H]1O (stereo partly drawn) [keratan sulfate disaccharide (III), Gal(6S)β1-4GlcNAc(6S)] | slightly observed | significantly less than that in the control group | – | – | – | – | –
2 | CC(=O)N[C@H]1[C@H](O[C@H]2[C@@H](O)[C@@H](COS(=O)(=O)O)O[C@@H](O[C@H]3[C@H](O)[C@@H](NC(C)=O)C(O)O[C@@H]3COS(=O)(=O)O)[C@@H]2O)O[C@H](COS(=O)(=O)O)[C@@H](O[C@@H]2O[C@H](COS(=O)(=O)O)[C@H](O)[C@H](O)[C@H]2O)[C@@H]1O (stereo partly drawn) [keratan sulfate tetrasaccharide (I), Gal(6S)β1-4GlcNAc(6S)β1-3Gal(6S)β1-4GlcNAc(6S)] | – | significantly less than that in the control group | remarkably inhibits the generation of active oxygen (O2^-) depending upon the concentration | 619 | 597 | 528 | significantly less than that in the control group
